In patent US11761045B2, “Splice variants associated with neomorphic SF3B1 mutants” (Eisai R&D Management Co., Ltd., priority 2015, dated 2023):

Assays:
SF3B1^K700E = SF3B1^K700E (Homo sapiens, UniProt O75533+Q7RTV0, K700E); assay: Competitive binding assay (SPA, 3H-probe molecule) with Flag-tag SF3B1 from 293F cells; set-up: expressed in transfected cells; host or cells: 293F cells (Life Technologies), transient transfection with pFLAG-CMV-2-SF3B1 K700E; conditions: one nM 3H-probe; Flag-tag SF3B1^K700E from transfected 293F cells; read-out: IC50, competitive inhibition of binding of the 3H-probe molecule
Protocol: The ability of E7107 to bind both SF3B1^WT and SF3B1^K700E proteins was evaluated in a competitive binding assay using Flag-tag SF3B1 proteins immunoprecipitated with anti-Flag antibody from transiently transfected 293F cells. Batch immobilization of antibody to beads was prepared by incubating 80 μg of anti-SF3B1 antibody (MBL International) and 24 mg anti-mouse PVT SPA scintillation beads (PerkinElmer) for 30 minutes. After centrifugation, the antibody-bead mixture was resuspended in PBS supplemented with PhosSTOP phosphatase inhibitor cocktail (Roche) and complete ULTRA protease inhibitor cocktail (Roche). Nuclear extracts were prepared by diluting 40 mg into a total volume of 16 mL PBS with phosphatase and protease inhibitors, and the mixture was centrifuged. The supernatant was transferred into a clean tube, and the antibody-bead mixture was added and incubated for two hours. The beads were collected by centrifuging, washed twice with PBS+0.1% Triton X-100, and resuspended with 4.8 mL of PBS. 100 μL binding reactions were prepared using slurry and varying concentrations of E7107. […] The mixture was incubated at room temperature for 15 minutes, and luminescence signals were read using a MicroBeta2 Plate Counter (PerkinElmer).

Nalm-6 SF3B1^K700K cells [1] = assay: Splice variant levels in Nalm-6 isogenic cells by NanoString assay; type: cell-based, human; conditions: 15 nM
Protocol: (§1) A NanoString® assay was developed to quantify aberrant and canonical splice variants and was validated using the same cell panel. For the NanoString® assay, 750 ng of purified total RNA was used as template for the nCounter® (NanoString Technologies®) expression assay using a custom panel of NanoString® probes. The sample preparation was set up as recommended (NanoString® Technologies protocol no. C-0003-02) for an overnight hybridization at 65° C. The following day, samples were processed through the automated nCounter® Analysis System Prep Station using the high sensitivity protocol (NanoString® Technologies protocol no. MAN-00029-05) followed by processing through the nCounter® Analysis System Digital Analyzer (protocol no. MAN-00021-01) using 1150 FOVs for detection. Data was downloaded and analyzed for quality control metrics and normalization using the nSolver™ Analysis Software (NanoString Technologies®). The data was first normalized for lane-to-lane variation using the positive assay controls provided by the manufacturer (NanoString® positive controls A-F [containing in vitro transcribed RNA transcripts at concentrations of 128 fM, 32 fM, 8 fM, 2 fM, 0.5 fM, and 0.125 fM, each pre-mixed with NanoString® Reporter CodeSet probes])). Any samples with normalization factors <0.3 and >3 were not considered for further analysis. This was followed by content normalization using the geo-mean of GAPDH, EEF1A1 and RPLP0. All samples were within the recommended 0.1-10 normalization factor range. Each normalized value was then checked to ensure that it was at least two standard deviations higher than the average of background signal recorded for that lane. Any value below that was considered below detection limit. These normalized values were taken for further bioinformatics and statistical analysis.
(§2) To investigate the broader activity of E7107 on normal and aberrant splicing, RNA from Nalm-6 isogenic cells treated for two and six hours at 15 nM was analyzed by NanoString®. […] Normal and aberrant splicing in the isogenic cell lines was also analyzed by RNA-Seq following treatment with one of additional compounds having formulas 1 or 2. […] For the RNA-Seq analysis, cells were washed with PBS after treatment with E7107 or other test compound, and RNA was isolated using PureLink (Life Technology) as reported in the manufacturer's manual. cDNA library preparation, sequencing and raw read filtering was performed as described in Ren, S. et al. “RNA-Seq analysis of prostate cancer in the Chinese population identifies recurrent gene fusions, cancer-associated long noncoding RNAs and aberrant alternative splicings.” Cell Res 22, 806-821, doi:10.1038/cr.2012.30 (2012).

Nalm-6 SF3B1^K700E cells [2] = assay: as above; type: cell-based, human; conditions: 15 nM
Protocol: as §1, §2

Nalm-6 SF3B1^K700K cells [3] = assay: Normal and aberrant splicing in Nalm-6 isogenic cells by qPCR; type: cell-based, human; conditions: increasing concentrations, six hours
Protocol: (§3) E7107 was also tested in vitro in Nalm-6 isogenic cell lines for the ability to modulate normal and aberrant splicing induced by SF3B1^WT and SF3B1^K700E protein. Nalm-6 isogenic cells were treated with increasing concentrations of E7107 for six hours and RNA was analyzed by qPCR.
(§4) In addition, the ability of E7107 to modulate splicing was tested in mice bearing human tumor xenografts. Nalm-6 isogenic xenograft mice were generated by subcutaneously implanting 10×10^6 Nalm-6 isogenic cells into the flank of CB17-SCID mice, and tumors from these mice were collected at different timepoints after a single intravenous (IV) dose of E7107 (5 mg/kg) and analyzed to determine compound concentrations and splicing regulation. RNA was isolated from the tumors using RiboPure™ RNA purification kit (Ambion®) and used for NanoString® assay or qPCR. The RNA was retrotranscribed according to the instructions of the SuperScript® VILO™ cDNA synthesis kit (Invitrogen™) and 0.04 μl of cDNA was used for qPCR. qPCR for pre-mRNA EIF4A1 and mature mRNA […] and pharmacokinetic evaluation were performed as described in Eskens, F. A. et al. “Phase I pharmacokinetic and pharmacodynamic study of the first-in-class spliceosome inhibitor E7107 in patients with advanced solid tumors.” Clin Cancer Res 19, 6296-6304, doi:10.1158/1078-0432.CCR-13-0485 (2013). The primers and probes used for ZDHHC16 were the following: FW 5′-[…] (SEQ ID NO: 1194), RW 5′ […] (SEQ ID NO: 1195) and probe 5′ FAM […] (SEQ ID NO: 1196). The primers and probes used for COASY were the following: FW 5′-CGGTGGTGCAAGTGGAA (SEQ ID NO: 1197), RW 5′-[…] (SEQ ID NO: 1198) and probe 5′-FAM-[…] (SEQ ID NO: 1199).

Nalm-6 SF3B1^K700E cells [4] = assay: as above; type: cell-based, human; conditions: increasing concentrations, six hours
Protocol: as §3, §4

Sequence of SF3B1^K700E (Q15393 whole entry, stated change not applied): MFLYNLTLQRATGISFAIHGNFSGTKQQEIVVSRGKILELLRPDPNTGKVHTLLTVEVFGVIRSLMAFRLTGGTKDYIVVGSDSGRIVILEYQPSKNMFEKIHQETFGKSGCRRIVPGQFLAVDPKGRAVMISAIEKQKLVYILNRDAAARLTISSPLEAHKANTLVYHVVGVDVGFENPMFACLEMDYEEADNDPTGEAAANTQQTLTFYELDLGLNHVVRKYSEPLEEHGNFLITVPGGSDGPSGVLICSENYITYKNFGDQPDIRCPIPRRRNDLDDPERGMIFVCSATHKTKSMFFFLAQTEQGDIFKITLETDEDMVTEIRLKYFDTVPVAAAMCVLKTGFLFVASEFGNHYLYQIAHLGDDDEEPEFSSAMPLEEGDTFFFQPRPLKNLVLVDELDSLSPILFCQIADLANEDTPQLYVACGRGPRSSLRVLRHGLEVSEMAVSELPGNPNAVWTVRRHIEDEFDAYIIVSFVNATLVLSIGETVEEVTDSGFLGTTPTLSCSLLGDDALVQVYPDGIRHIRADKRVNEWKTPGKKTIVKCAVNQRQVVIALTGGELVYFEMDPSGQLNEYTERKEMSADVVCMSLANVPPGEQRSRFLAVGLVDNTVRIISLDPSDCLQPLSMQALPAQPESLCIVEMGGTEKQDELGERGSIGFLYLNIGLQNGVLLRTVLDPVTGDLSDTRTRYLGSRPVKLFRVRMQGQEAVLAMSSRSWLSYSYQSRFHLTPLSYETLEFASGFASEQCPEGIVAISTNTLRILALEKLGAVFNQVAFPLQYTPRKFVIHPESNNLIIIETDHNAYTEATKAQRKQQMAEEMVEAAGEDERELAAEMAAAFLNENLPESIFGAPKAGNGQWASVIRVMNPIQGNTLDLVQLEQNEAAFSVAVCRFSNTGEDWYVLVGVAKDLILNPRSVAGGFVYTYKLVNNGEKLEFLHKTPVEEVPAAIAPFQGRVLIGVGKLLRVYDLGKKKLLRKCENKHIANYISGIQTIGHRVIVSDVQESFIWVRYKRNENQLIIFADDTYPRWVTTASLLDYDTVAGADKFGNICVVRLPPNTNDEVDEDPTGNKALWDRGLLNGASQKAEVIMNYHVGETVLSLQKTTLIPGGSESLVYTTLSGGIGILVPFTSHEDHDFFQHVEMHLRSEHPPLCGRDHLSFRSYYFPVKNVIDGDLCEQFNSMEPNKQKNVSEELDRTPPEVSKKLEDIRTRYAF
Sequence of SF3B1^K700E (Q9BWJ5 whole entry, further chain): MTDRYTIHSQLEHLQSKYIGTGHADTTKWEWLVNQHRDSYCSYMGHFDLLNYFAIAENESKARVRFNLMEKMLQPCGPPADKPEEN
Sequence of SF3B1^K700E (Q7RTV0 whole entry): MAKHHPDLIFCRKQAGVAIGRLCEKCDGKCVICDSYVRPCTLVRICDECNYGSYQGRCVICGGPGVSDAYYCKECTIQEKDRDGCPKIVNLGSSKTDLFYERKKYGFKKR
Sequence of SF3B1^K700E (O75533 whole entry K700E): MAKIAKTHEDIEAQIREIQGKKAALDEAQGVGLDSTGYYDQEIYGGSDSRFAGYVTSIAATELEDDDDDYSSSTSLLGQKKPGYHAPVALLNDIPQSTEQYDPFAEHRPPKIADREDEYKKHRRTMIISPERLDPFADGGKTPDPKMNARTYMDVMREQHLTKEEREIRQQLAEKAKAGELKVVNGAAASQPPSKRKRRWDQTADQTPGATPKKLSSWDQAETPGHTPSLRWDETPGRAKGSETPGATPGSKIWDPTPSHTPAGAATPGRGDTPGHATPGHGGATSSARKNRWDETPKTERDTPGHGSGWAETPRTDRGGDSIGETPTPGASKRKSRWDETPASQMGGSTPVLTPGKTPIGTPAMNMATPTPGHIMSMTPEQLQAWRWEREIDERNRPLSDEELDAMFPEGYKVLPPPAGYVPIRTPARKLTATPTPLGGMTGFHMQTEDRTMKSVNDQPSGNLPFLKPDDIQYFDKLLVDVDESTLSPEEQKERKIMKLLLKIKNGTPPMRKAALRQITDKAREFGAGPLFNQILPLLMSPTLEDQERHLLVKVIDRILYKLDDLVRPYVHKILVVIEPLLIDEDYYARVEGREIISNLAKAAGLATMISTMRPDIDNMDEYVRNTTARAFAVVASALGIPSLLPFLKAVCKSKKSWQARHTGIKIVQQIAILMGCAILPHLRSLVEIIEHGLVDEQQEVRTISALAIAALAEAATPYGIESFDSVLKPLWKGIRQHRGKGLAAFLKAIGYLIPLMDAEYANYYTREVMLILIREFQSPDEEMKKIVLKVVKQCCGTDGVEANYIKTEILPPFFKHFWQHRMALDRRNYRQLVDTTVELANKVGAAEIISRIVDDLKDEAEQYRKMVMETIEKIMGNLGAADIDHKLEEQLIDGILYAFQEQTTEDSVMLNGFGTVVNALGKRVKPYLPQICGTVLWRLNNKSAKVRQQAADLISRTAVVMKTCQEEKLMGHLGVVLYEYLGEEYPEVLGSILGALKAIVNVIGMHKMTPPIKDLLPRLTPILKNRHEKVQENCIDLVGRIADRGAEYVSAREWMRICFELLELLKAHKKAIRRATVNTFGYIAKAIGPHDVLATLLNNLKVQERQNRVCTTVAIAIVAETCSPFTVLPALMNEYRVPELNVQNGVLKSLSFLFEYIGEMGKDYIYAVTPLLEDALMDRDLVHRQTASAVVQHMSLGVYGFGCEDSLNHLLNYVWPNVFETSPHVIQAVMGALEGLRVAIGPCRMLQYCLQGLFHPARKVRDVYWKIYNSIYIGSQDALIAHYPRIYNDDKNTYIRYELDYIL

## CC[C@H](O)[C@@H](C)[C@H]1O[C@@H]1C[C@@](C)(O)/C=C/C=C(\C)[C@H]1OC(=O)C[C@H](O)CC[C@@](C)(O)[C@@H](OC(=O)N2CCN(C3CCCCCC3)CC2)/C=C/[C@@H]1C [Compound E7107]
SF3B1^K700E
  IC50: 11 nM
Nalm-6 SF3B1^K700K cells [1]; six hours
  inhibition of splicing (all isoforms quantified): clear inhibition
Nalm-6 SF3B1^K700K cells [1]; two hours
  inhibition of splicing (gene, WT-associated and MUT-associated isoform expression): partial inhibition of splicing
Nalm-6 SF3B1^K700E cells [2]; six hours
  inhibition of splicing (all isoforms quantified): clear inhibition
Nalm-6 SF3B1^K700E cells [2]; two hours
  inhibition of splicing (gene, WT-associated and MUT-associated isoform expression): partial inhibition of splicing
Nalm-6 SF3B1^K700K cells [3]
  EIF4A1 pre-mRNA level (canonical splicing): accumulation of pre-mRNA for EIF4A1
  SLC25A19 mature mRNA level (canonical splicing): downregulation of the mature mRNA SLC25A19
Nalm-6 SF3B1^K700E cells [4]
  EIF4A1 pre-mRNA level (canonical splicing): accumulation of pre-mRNA for EIF4A1
  SLC25A19 mature mRNA level (canonical splicing): downregulation of the mature mRNA SLC25A19
  mature mRNA of abnormally spliced isoform of COASY: downregulation of mature mRNA
  mature mRNA of abnormally spliced isoform of ZDHHC16: downregulation of mature mRNA
